Patent US20260108526A1, “BIOMARKER FOR TREATMENT OF SOLID CANCER WITH IMIDAZO[4,5-b]PYRIDINE DERIVATIVE” (CHORDIA THERAPEUTICS INC., priority 2022, published 2026)

What was measured:
LN-18 = assay: Cell viability, neuroblastoma cell lines (CellTiter-Glo); assay type: cell-based; conditions: Homo sapiens, 96 h; LN-18, MYCN gene amplification absent, 4 days
Experimental: (§1) The neuroblastoma cell lines CHP-212, SK-N-BE(2), SK-N-DZ, LN-18, U-87 MG, and SW1088 were obtained from ATCC (American Type Culture Collection), and cultured with Dulbecco's modified Eagle's medium F-12 (DMEM-F12) supplemented with 10% FBS (both from Thermo Fisher Scientific, Walthman, MA) under conditions of 5% CO2 and 37° C. for use.
(§2) Each of the aforementioned six cell lines (4000 cells/90 μL for each case) was seeded in wells of a 96-well plate, and then 10 μL of medium containing DMSO alone or compound A (1 nM, 3 nM, 10 nM, 30 nM, 100 nM, 300 nM, 1000 nM, 3000 nM, and 10000 nM) was quickly added to give different final concentrations. After culturing for 4 days following the addition, the following evaluation of cell viabilities was carried out.
(§3) Evaluation of cell viabilities after different treatments was carried out by measuring intracellular adenosine triphosphate (ATP) with CellTiter-Glo. Specifically, 100 μL of CellTiter-Glo solution was added to each well, incubation was performed at room temperature for 15 minutes, and the chemiluminescence was then measured. The mean of each combination was calculated from the resulting data, and concentration response curves on cell viabilities as the emission intensity in the cells treated with DMSO alone was defined as 100% were drawn for single use or combined use of each agent.
(§4) The 50% inhibition concentration (IC50) of compound A was determined by using Graph Pad Prism software version 7.0 (GraphPad Software Inc.).

SW1088 = assay: as above; assay type: cell-based; conditions: Homo sapiens, 96 h; SW1088, MYCN gene amplification absent, 4 days
Experimental: as §1, §2, §3, §4

SK-N-BE(2) = assay: as above; assay type: cell-based; conditions: Homo sapiens, SKNBE2, 96 h, MYCN gene amplification present, 4 days
Experimental: as §1, §2, §3, §4

CHP-212 = assay: as above; assay type: cell-based; conditions: Homo sapiens, 96 h; CHP-212, MYCN gene amplification present, 4 days
Experimental: as §1, §2, §3, §4

SK-N-DZ = assay: as above; assay type: cell-based; conditions: Homo sapiens, 96 h, MYCN gene amplification present, 4 days
Experimental: as §1, §2, §3, §4

U-87MG = assay: as above; assay type: cell-based; conditions: Homo sapiens, 96 h, MYCN gene amplification absent, 4 days
Experimental: as §1, §2, §3, §4

[1] = system: mouse-derived tumor BTG-M605 having MMTV-MYCC; assay: Mouse subcutaneous transplantation model, MMTV-MYCC; assay type: in vivo; conditions: twice a week, day 14
Experimental: A tumor piece of the mouse-derived tumor BTG-M605 having MMTV-MYCC or the mouse-derived tumor BTG-R502 having MMTV-HRAS (both from Shanghai Medicilon Inc.) was subcutaneously transplanted into the abdomen of each female nude mouse. Calipers were used in measuring tumor volume, which was calculated from the calculation formula: tumor volume=(tumor major axis×tumor minor axis×tumor minor axis)/2. When the tumor volumes reached approximately 180 mm^3, the mice were grouped into four groups each consisting of eight mice. Compound A was orally administered in an intermittent manner according to a schedule in which a twice-daily dose of 12.5, 25, or 50 mg/kg was administered twice a week (on days 0, 4, 7, and 11) for 14 days. To a control group, 0.5% methylcellulose solution was orally administered. After the grouping, measurement of tumor volume was performed twice a week. T/C (%) on day 14 was used as an index of antitumor effect.

[2] = system: progressive/recurrent or intractable malignant tumors; assay: Phase I clinical trial of compound A; assay type: in vivo, human
Experimental: In the present analysis, as phase I clinical trial of compound A to progressive/recurrent or intractable malignant tumors in accordance with a protocol approved by National Cancer Center Institutional Review Board, tumor tissue specimens in cases with informed consent were obtained and mutation analysis of cancer-related genes by Oncomine Comprehensive Assay v3 was carried out in the following procedure.
For best overall response in analyzed cases, two cases with partial response (PR) were present for ovarian cancer, and seven cases with stable disease (SD) and five cases with progressive disease (PD) were present for others.
Three of the 14 cases were cases in which the number of days from the day of initial administration to the day of final administration (treatment period) was more than 168 (28 days/cycle×6 cycles). Two of the three cases were the ovarian cancer cases with PR and the other one case was likewise an ovarian cancer case with SD. On the assumption that strong therapeutic effect was found for the three cases (case A: the best overall response was SD, the treatment period was 186 days, case B: the best overall response was PR, the treatment period was 193 days, case C: the best overall response was PR, the treatment period was 387 days), the correlation with each mutation was analyzed.
Mutation analysis of cancer-related genes by Oncomine Comprehensive Assay v3 was carried out for four cases differing from the 14 cases analyzed in Example 8. Also for the four cases, as phase I clinical trial of compound A to progressive/recurrent or intractable malignant tumors in accordance with a protocol approved by National Cancer Center Institutional Review Board, tumor tissue specimens in cases with informed consent were obtained. Sequence analysis was performed in the same manner as in Example 8. However, the calculation method in Example 9 was used in calculating tumor rates for use in analysis of CNV.
For best overall response in the two cases, one case with SD and one case with PD were present. The number of days from the day of initial administration to the day of final administration (treatment period) was more than 168 (28 days/cycle×6 cycles) in one case with SD among those cases. This one case with SD (case D: the best overall response was SD, the treatment period was 386 days), which was a clear cell sarcoma case, was considered to involve strong therapeutic effect, and analyzed for the correlation with each mutation.

[3] = two evaluable additional cases of Example 10

COc1ncnn2ccc(-c3cnc4nc(C)n(Cc5nnc([C@@H](C)F)o5)c4c3)c12 [compound A]
IC50 (LN-18): 106 nM | IC50 (SW1088): 152 nM | IC50 (SK-N-BE(2)): 86.6 nM | IC50 (CHP-212): 65.9 nM | IC50 (SK-N-DZ): 25.4 nM | IC50 (U-87MG): 101 nM | T/C(%) ([1]; oral 12.5 mg/kg twice daily): 29.1% | T/C(%) ([1]; oral 25 mg/kg twice daily): 19.6% | T/C(%) ([1]; oral 50 mg/kg twice daily): 9.1% | cases with progressive disease (PD) as best overall response ([2]; 14 analyzed cases of Example 8): five | cases with stable disease (SD) as best overall response ([2]; 14 analyzed cases of Example 8): seven | cases with partial response (PR) as best overall response ([2]; 14 analyzed cases of Example 8, ovarian cancer): two | treatment period (day of initial to day of final administration) ([2]; case A, ovarian cancer): 186 days | treatment period (day of initial to day of final administration) ([2]; case B, ovarian cancer): 193 days | treatment period (day of initial to day of final administration) ([2]; case C, ovarian cancer): 387 days | treatment period (day of initial to day of final administration) ([2]; case D, clear cell sarcoma): 386 days | treatment period (day of initial to day of final administration) ([2]; one ovarian cancer case in which strong therapeutic effect was not found): 11 days | treatment period (day of initial to day of final administration) ([2]; one thymoma case): 99 days | treatment period (day of initial to day of final administration) ([2]; one transverse colon cancer case): 144 days | cases with PD as best overall response [2, 3]: one | cases with SD as best overall response [2, 3]: one
